Values of other authors as cited in article PMC12591484 (PLOS One, 2025).
Like-named read-outs stand apart in the source and are kept apart here.

How the values were obtained:
Conditions in all cases: previously reported; cited from earlier work
[1] = target: T1, α1β3γ2L246C GABAA receptors (Homo sapiens, UniProt P14867+P18507+P28472, L285C); set-up: key: +: Mutant-function studies are deemed positive when bulky mutations (mostly tryptophans) at the site significantly reduce positive modulation by anesthetics; -: Negative results are indicated by “–“ symbols
T1 construct: expressed in transfected cells; host or cells: Xenopus oocytes injected with capped mRNAs mixed 1α:1β:5γ

[2] = test system: α1β3γ2L GABAA receptors, substituted cysteine at α1L232 (α1– M1); set-up: key: +: Mutant-function studies are deemed positive when bulky mutations (mostly tryptophans) at the site significantly reduce positive modulation by anesthetics; -: Negative results are indicated by “–“ symbols
[3] = test system: α1β3γ2L GABAA receptors, substituted cysteine at α1L232 (α1– M1); set-up: key: +: SCAMP is Substituted Cysteine Modification and Protection and is positive when adding anesthetic to cysteine modifier significantly reduces persistent post-exposure effects due to covalent modification; -: Negative results are indicated by “–“ symbols

T1 sequence (P14867 28-456, stated change not applied): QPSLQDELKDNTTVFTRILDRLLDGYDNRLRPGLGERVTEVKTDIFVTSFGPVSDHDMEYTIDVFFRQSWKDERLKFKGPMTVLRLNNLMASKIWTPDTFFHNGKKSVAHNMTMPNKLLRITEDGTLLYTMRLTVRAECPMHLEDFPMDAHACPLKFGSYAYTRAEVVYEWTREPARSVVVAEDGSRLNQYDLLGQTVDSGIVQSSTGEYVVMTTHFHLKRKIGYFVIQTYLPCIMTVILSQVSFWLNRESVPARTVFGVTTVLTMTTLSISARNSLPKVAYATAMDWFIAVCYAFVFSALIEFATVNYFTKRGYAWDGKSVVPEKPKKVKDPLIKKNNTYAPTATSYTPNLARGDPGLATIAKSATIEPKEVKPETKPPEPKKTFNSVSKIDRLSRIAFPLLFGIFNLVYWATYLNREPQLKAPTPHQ
T1 sequence (P28472 26-473): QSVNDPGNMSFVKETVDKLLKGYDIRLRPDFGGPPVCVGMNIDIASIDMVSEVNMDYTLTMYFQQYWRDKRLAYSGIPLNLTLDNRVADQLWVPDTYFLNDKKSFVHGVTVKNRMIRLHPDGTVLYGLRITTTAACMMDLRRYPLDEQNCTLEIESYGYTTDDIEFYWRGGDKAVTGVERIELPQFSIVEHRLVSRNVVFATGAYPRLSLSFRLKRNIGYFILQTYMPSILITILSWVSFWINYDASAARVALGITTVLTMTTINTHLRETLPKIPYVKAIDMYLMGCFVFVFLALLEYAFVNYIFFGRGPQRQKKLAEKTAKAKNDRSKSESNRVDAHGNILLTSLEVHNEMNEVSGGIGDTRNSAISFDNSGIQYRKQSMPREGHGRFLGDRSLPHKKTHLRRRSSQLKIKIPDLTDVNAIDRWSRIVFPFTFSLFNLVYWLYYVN
T1 sequence (P18507 40-475 L285C): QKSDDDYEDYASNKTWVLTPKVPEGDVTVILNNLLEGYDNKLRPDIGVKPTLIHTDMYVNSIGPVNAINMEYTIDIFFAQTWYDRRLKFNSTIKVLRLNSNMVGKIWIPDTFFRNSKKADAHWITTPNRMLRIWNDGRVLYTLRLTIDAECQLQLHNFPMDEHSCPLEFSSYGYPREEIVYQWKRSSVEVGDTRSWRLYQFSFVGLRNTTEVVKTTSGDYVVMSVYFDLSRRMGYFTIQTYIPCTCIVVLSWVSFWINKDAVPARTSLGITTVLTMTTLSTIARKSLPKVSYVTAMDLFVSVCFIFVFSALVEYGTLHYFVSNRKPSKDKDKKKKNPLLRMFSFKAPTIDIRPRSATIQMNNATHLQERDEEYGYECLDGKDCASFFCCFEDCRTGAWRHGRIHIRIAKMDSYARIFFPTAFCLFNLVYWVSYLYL

| SMILES | SCAMP result, γ2– (M1) L246 [1] | SCAMP result, α1– (M1) L232 [2] | SCAMP result, α1– (M1) L232 [3] |
| --- | --- | --- | --- |
| C=CCC1(c2cccc(C3(C(F)(F)F)N=N3)c2)C(=O)NC(=O)N(C)C1=O (stereo not drawn) [R-mTFD-MPAB, R-5-allyl-1-methyl-5-(m-trifluoromethyl-diazirynylphenyl) barbituric acid] | -^[9] | -^[9] | – |
| CCOC(=O)c1cncn1[C@H](C)c1ccccc1 [etomidate, R-etomidate] | – | – | +^[9] |
